Measured values published in patent US10450300B2, “Wnt signaling pathway inhibitors and therapeutic applications thereof” (Suzhou Yunxuan Yiyao Keji Youxian Gongsi, priority 2015, dated 2019).
pIC50: −log10 of the molar value.

Test system: Wnt pathway
Assay: Wnt pathway Super-top flash (STF) reporter gene assay (primary assay)
Type: cell-based
Settings: HEK293 STF cells co-cultured 1:1 with L Wnt3A cells; 48 h incubation; inhibition of luminescence signaling
In short: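 HEK293 cells stably carrying a Super-Top Flash TCF-luciferase reporter were co-cultured 1:1 with L Wnt3A cells for 24 h, then exposed to compound dilutions for 48 h at 37 °C. Luminescence read-out (Bright-Glo); IC50 from inhibition of luminescence.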

Compound | pIC50
Cc1cc(-c2ncc(CNc3nccc(-c4ccc5ncccc5n4)c3O)cc2F)ccn1 [Compound A-176, 2-((3-fluoro-2′-methyl-2,4′-bipyridin-5-yl)methylamino)-4-(1,5-naphthyridin-2-yl)pyridin-3-ol] | 7.74
N#Cc1ccc2cc(CNc3nccc(-c4ccc5ncccc5c4)n3)cnc2c1 [Compound A-177] | 7.00
N#Cc1ccc2nc(CNc3nccc(-c4ccc5ncccc5c4)n3)ccc2c1 [Compound A-178] | 6.70
N#Cc1cnc2cc(CNc3nccc(-c4ccc5ncccc5c4)n3)ccc2c1 [Compound A-179, 7-((4-(quinolin-6-yl)pyrimidin-2-ylamino)methyl)quinoline-3-carbonitrile] | 6.30
O=S1(=O)CCN(c2ccc(CNc3nccc(-c4ccc5ncccc5c4)n3)cn2)CC1 [Compound A-180] | 6.52
CS(=O)(=O)CCNc1ccc(CNc2nccc(-c3ccc4ncccc4c3)n2)cn1 [Compound A-181] | 6.46
COc1cc(CNc2nccc(-c3cc4cccnc4cn3)n2)cnc1-c1ccnc(C)c1 [Compound A-182] | 9.19
Cc1cc(-c2ncc(CNc3nccc(-c4cc5cccnc5cn4)n3)cc2C#N)ccn1 [Compound A-183, 5-((4-(1,7-naphthyridin-6-yl)pyrimidin-2-ylamino)methyl)-2′-methyl-2,4′-bipyridine-3-carbonitrile] | 8.68
Cc1cc(-c2ncc(CNc3nccc(-c4cc5cccnc5cn4)n3)cc2F)ccn1 [Compound A-184] | 9.00
Cc1cc(-c2ncc(CNc3nnc(-c4ccc5ncccc5c4)s3)cc2C#N)ccn1 [Compound A-185] | 8.37
Cc1cc(-c2ccc(CNc3nsc(-c4ccc5ncccc5c4)n3)cc2)ccn1 [Compound A-186] | 9.57
Cc1cn(-c2ccc(CNc3nsc(-c4ccc5ncccc5c4)n3)cc2)cn1 [Compound A-187] | 7.29
O=S1(=O)CCN(c2ccc(CNc3nsc(-c4ccc5ncccc5c4)n3)cn2)CC1 [Compound A-188] | 8.34
CS(=O)(=O)CCNc1ccc(CNc2nsc(-c3ccc4ncccc4c3)n2)cn1 [Compound A-189] | 5.52
Cc1cc(-c2ccc(CNc3nsc(-c4ccc5ncccc5c4)n3)cn2)ccn1 [Compound A-190] | 9.40
Cc1cc(-c2ncc(CNc3nsc(-c4ccc5ncccc5c4)n3)cc2C)ccn1 [Compound A-191] | 9.42
Cc1cc(-c2ncc(CNc3nsc(-c4ccc5ncccc5c4)n3)cc2F)ccn1 [Compound A-192] | 10.00
COc1cc(CNc2nsc(-c3ccc4ncccc4c3)n2)cnc1-c1ccnc(C)c1 [Compound A-193] | 10.15
Cc1cc(-c2ncc(CNc3nsc(-c4ccc5ncccc5c4)n3)cc2C#N)ccn1 [Compound A-194] | 10.05
Cc1cc(-c2ncc(CNc3nsc(-c4cc5cccnc5cn4)n3)cc2F)ccn1 [Compound A-195] | 9.08
COc1cc(CNc2nsc(-c3cc4cccnc4cn3)n2)cnc1-c1ccnc(C)c1 [Compound A-196, N-((3-methoxy-2′-methyl-2,4′-bipyridin-5-yl)methyl)-5-(1,7-naphthyridin-6-yl)-1,2,4-thiadiazol-3-amine] | 9.11
Cc1cc(-c2ncc(CNc3nsc(-c4cc5cccnc5cn4)n3)cc2C#N)ccn1 [Compound A-197] | 9.51
Cc1cc(-c2ncc(CNc3nsc(N4CCc5ncccc5C4)n3)cc2C#N)ccn1 [Compound A-198, 5-((5-(7,8-dihydro-1,6-naphthyridin-6(5H)-yl)-1,2,4-thiadiazol-3-ylamino)methyl)-2′-methyl-2,4′-bipyridine-3-carbonitrile] | 9.38
N#Cc1ccc2cc(CNc3nsc(-c4ccc5ncccc5c4)n3)cnc2c1 [Compound A-199, 3-((5-(quinolin-6-yl)-1,2,4-thiadiazol-3-ylamino)methyl)quinoline-7-carbonitrile] | 9.77
N#Cc1ccc(NCCNc2nsc(-c3ccc4ncccc4c3)n2)nc1 [Compound A-200] | 7.60
Cc1cc(-c2ncc(CNc3ncnc(N4CCn5nccc5C4)c3F)cc2C#N)ccn1 [Compound A-201] | 9.10
Cc1cc(-c2ncc(CNc3nccc(N4CCc5ncccc5C4)c3F)cc2F)ccn1 [Compound A-202, 4-(7,8-dihydro-1,6-naphthyridin-6(5H)-yl)-3-fluoro-N-((3-fluoro-2′-methyl-2,4′-bipyridin-5-yl)methyl)pyridin-2-amine] | 9.30
